Laboratory results published in BindingDB's records for doi:10.1021/jm00076a030 (Eli Lilly, 1994).

Target: Leukotriene B4 receptor (Cavia porcellus)
Assay: Tested for inhibition of specific binding of [3H]LTB4 to guinea pig lung membranes expressing LTB4 receptor

Ki | Structure (SMILES)
12 nM | CCc1cc(-c2ccccc2)c(O)cc1OCCCOc1ccc2c(=O)c3ccccc3oc2c1CCC(=O)O [3-{3-[3-(5-Ethyl-2-hydroxy-biphenyl-4-yloxy)-propoxy]-9-oxo-9H-xanthen-4-yl}-propionic acid]
0.11 nM | CCc1cc(-c2ccccc2)c(O)cc1OCCCOc1ccc2c(=O)c3cc(C(=O)O)ccc3oc2c1CCC(=O)O [5-(2-Carboxy-ethyl)-6-[3-(5-ethyl-2-hydroxy-biphenyl-4-yloxy)-propoxy]-9-oxo-9H-xanthene-2-carboxylic acid]
